Measurements as given in PMC3997483, “Aminostyrylbenzofuran Directly Reduces Oligomeric Amyloid-β and Reverses Cognitive Deficits in Alzheimer Transgenic Mice” (PLoS ONE, 2014).
Marks after values point to notes of the source that are not given here.

How the values were obtained:
CYP2C19 = target: T1, CYP2C19 (Homo sapiens, UniProt P33261); test: CYP inhibition assay (Crespi, fluorescent probe); type: in vitro ADME
T1 construct: five CYP isozymes (CYP3A4, 1A2, 2C9, 2C19, and 2D6) from human LM; from tissue; host or cells: human liver microsomes
Procedure: Cytochrome P450 (CYP) inhibition assay was carried out according to the principle of the Crespi assay. Fluorescent probe substrates (BD Gentest, USA) used for each CYP isozyme were: 3-cyano-7-ethoxycoumarin for CYP1A2 and CYP2C19, 7-benzyloxy-trifluoromethylcoumarin for CYP3A4, 7-methoxy-4-trifluoromethylcoumarin for CYP2C9 and 3-[2-(N,N-diethyl-N-methylamino)ethyl]-7-methoxy-4-methyl-coumarin for CYP2D6. […] All reactions were stopped by addition of 75 µL of 0.1 M tris in acetonitrile and analyzed by an LC-MS/MS product ion monitoring method on Agilent 1200 HPLC (Agilent, USA) and API-5000 mass spectrometer (Canada). IC50 value was calculated using SigmaPlot 10.0 (Systat Software Inc., USA).

[1] = Pharmacokinetics IV/PO in dogs; type: in vivo, beagle dogs; details: for AUC(0-t): read-out: AUC0–24h
Procedure: Pharmacokinetics profile of KMS88009 was obtained using ICR mice, SD rats, beagle dogs and cynomolgus monkeys. Animals were fasted overnight before KMS88009 administration. Mice were divided into 2 groups to receive KMS88009 as a single dose of 2.1 mg/kg intravenous (IV) bolus or 10 mg/kg orally (PO) by gavage. Additionally, KMS88009 was administered orally to estimate the BBB penetration in mice (10, 30 and 100 mg/kg). […] Dog received KMS88009 either as an IV bolus (1 mg/kg) via the great saphenous vein or by oral gavage (4 mg/kg). KMS88009 was administrated to monkeys as an IV bolus (1 mg/kg) via the femoral vein or by oral gavage (4 mg/kg). Vehicle for IV and PO administration was DMSO/tween-20/saline (3.3∶19.8∶[…]). […]. Brain samples were weighed and Daunce-homogenized in 10-fold volume of ice-chilled 4% bovine serum albumin (BSA) solution at room temperature. Plasma and brain homogenates were kept frozen at −70°C until analysis. The levels of KMS88009 were determined by the LC-MS/MS analysis. Pharmacokinetic parameters, time to the maximum concentration (Tmax), maximum concentration (Cmax), elimination half-life (T1/2), volume of distribution (Vd), clearance (Cl) and mean residual time (MRT), of KMS88009 were calculated based on plasma concentration-time data by a non-compartmental method using WinNonlin Version 5.2 (Pharsight, USA). Area under the curve from 0 to 24 hr (AUC0-24h) and area under the curve from 0 to infinity (AUCINF) were obtained by linear and log linear trapezoidal summations.

[2] = Plasma and brain pharmacokinetics (BBB penetration) after PO in rats; type: in vivo; details: SD, rat, rats PO 2.5 mg/kg
Procedure: Pharmacokinetics profile of KMS88009 was obtained using ICR mice, SD rats, beagle dogs and cynomolgus monkeys. Animals were fasted overnight before KMS88009 administration. Mice were divided into 2 groups to receive KMS88009 as a single dose of 2.1 mg/kg intravenous (IV) bolus or 10 mg/kg orally (PO) by gavage. Additionally, KMS88009 was administered orally to estimate the BBB penetration in mice (10, 30 and 100 mg/kg). […] Dog received KMS88009 either as an IV bolus (1 mg/kg) via the great saphenous vein or by oral gavage (4 mg/kg). KMS88009 was administrated to monkeys as an IV bolus (1 mg/kg) via the femoral vein or by oral gavage (4 mg/kg). Vehicle for IV and PO administration was DMSO/tween-20/saline (3.3∶[…]∶79.6). All animals (n = 3 per group) were sacrificed and concentration of KMS88009 in plasma and brain were measured at 1/12, 1/4, 1/2, 1, 2, 4, 10 and 24 hr after IV administration and at 1/2, 1, 2, 4, 10 and 24 hr after PO administration. Brain samples were weighed and Daunce-homogenized in 10-fold volume of ice-chilled 4% bovine serum albumin (BSA) solution at room temperature. Plasma and brain homogenates were kept frozen at −70°C until analysis. The levels of KMS88009 were determined by the LC-MS/MS analysis. Pharmacokinetic parameters, time to the maximum concentration (Tmax), maximum concentration (Cmax), elimination half-life (T1/2), volume of distribution (Vd), clearance (Cl) and mean residual time (MRT), of KMS88009 were calculated based on plasma concentration-time data by a non-compartmental method using WinNonlin Version 5.2 (Pharsight, USA). Area under the curve from 0 to 24 hr (AUC0-24h) and area under the curve from 0 to infinity (AUCINF) were obtained by linear and log linear trapezoidal summations.

[3] = Stability in PBS buffer (plasma stability study); type: in vitro ADME; details: 37 °C
[4] = Single dose oral toxicity study; type: in vivo; details: SD, rat, in vivo, po
Procedure: (§1) KMS88009 was orally administered by gavage at dose levels of 0 (vehicle), 1,000 and 2,000 mg/kg. Each group consisted of 3 rats. Vehicle was DMSO/tween-20/saline (3.3∶3.3∶93.4) mixture. Administration volume of vehicle and KMS88009 was 10 mL/kg. Mortality, physical abnormalities and signs of pain/distress were daily observed in all animals. Body weight of each animal was measured before the administration and on the 1st, 4th, 8th, 11th and 14th days.
(§2) All data for single and 2-week repeated oral dose toxicity studies were expressed as the mean ± SD Difference between control and treated groups were evaluated with one-way analysis of variance (ANOVA) followed by Dunnett's test. Value P<0.05 was taken as being statistically significant. Statistical analyses were performed using GraphPad Prism software (USA).

SD rats = test: Single dose oral toxicity study; type: in vivo; details: rats
Procedure: as §1, §2

T1 sequence (P33261 whole entry): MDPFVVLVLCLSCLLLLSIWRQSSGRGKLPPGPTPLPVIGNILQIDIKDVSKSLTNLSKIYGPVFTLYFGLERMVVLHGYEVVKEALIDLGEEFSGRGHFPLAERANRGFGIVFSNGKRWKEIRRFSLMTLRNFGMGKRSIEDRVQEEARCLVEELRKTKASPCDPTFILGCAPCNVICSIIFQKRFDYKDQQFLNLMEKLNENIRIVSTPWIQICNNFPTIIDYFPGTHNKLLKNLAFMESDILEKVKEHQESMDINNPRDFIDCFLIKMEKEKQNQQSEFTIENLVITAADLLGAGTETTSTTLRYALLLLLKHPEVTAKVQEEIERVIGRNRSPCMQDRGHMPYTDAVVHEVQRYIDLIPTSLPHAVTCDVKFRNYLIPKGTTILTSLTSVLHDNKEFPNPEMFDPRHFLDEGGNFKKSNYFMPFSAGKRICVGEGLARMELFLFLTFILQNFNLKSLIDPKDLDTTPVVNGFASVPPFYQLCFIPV

COc1ccc2cc(C=Cc3ccc(N(C)C)cc3)oc2c1 [KMS88009, 6-methoxy-2-(4-dimethylaminostyryl) benzofuran]
IC50 (CYP2C19): 2510 ± 210 nM
MRT last ([1]; beagle, plasma, dog IV 1 mg/kg): 2.9 ± 0.6 h
Vd ([1]; beagle, plasma, dog IV 1 mg/kg): 115 ± 61.1 L/kg
clearance ([1]; beagle, plasma, dog IV 1 mg/kg): 158 mL/min/kg
half-life ([1]; beagle, plasma, dog IV 1 mg/kg): 486 ± 84 min
MRT last ([1]; beagle, plasma, dog PO 4 mg/kg): 3.8 ± 0.4 h
Tmax ([1]; beagle, plasma, dog PO 4 mg/kg): 1 h
half-life ([1]; beagle, plasma, dog PO 4 mg/kg): 528 ± 150 min
AUC(0-inf) ([1]; beagle, dog IV 1 mg/kg, plasma): 117 ± 43.6 ng·h/mL
AUC(0-t) ([1]; beagle, dog IV 1 mg/kg, plasma): 112 ± 43.4 ng·h/mL
AUC(0-inf) ([1]; beagle, dog PO 4 mg/kg, plasma): 103 ± 13 ng·h/mL
Cmax ([1]; beagle, dog PO 4 mg/kg, plasma): 32.8 ± 9.8 ng/mL
AUC(0-t) ([1]; beagle, dog PO 4 mg/kg, plasma): 97.1 ± 14 ng·h/mL
BA ([1]; dog PO 4 mg/kg vs IV 1 mg/kg): 21.6%
Cmax ([2]; brain): 1310 ng/g
Tmax ([2]; plasma, same data as Table 3): 1.7 h
AUC(0-t) ([2]; plasma, same data as Table 3, read-out: AUC0–24h): 908 ng·h/mL
Parent compound remaining ([3]; 0.5 hr): 99.1%
Parent compound remaining ([3]; 1 hr): 88.6%
Parent compound remaining ([3]; 2 hr): 100.0%
Parent compound remaining ([3]; 6 hr): 100.0%
LD50 at 14 days [4]: > 2000 mg/kg
Mortality (dead animals / total number of animals) (SD rats; single PO 1,000 mg/kg): 0 / 3 ^a
Mortality (dead animals / total number of animals) (SD rats; single PO 2,000 mg/kg): 0 / 3
